Measured values reported in patent US20200113181A1, “HERBICIDAL COMPOUNDS” (SYNGENTA PARTICIPATIONS AG, priority 2016, published 2020).

Tests used:
Type in all cases: in vivo
[1] = tested on: wheat plants (Triticum aestivum (TRZAW)); assay: Crop phytotoxicity, wheat plants treated post-emergence
Method: (§1) Seeds of a variety of test species are sown in standard soil in pots (Lolium perenne (LOLPE), Setaria faberi (SETFA), Alopecurus myosuroides (ALOMY), Echinochloa crus-galli (ECHCG), Avena fatua (AVEFA)). After cultivation for one day (pre-emergence) or after 8 days cultivation (post-emergence) under controlled conditions in a glasshouse (at 24/16° C., day/night; 14 hours light; 65% humidity), the plants are sprayed with an aqueous spray solution derived from the formulation of the technical active ingredient in acetone/water (50:50) solution containing 0.5% Tween 20 (polyoxyethelyene sorbitan monolaurate, CAS RN 9005-64-5). Compounds are applied at […]. The test plants are then grown in a glasshouse under controlled conditions in a glasshouse (at 24/16° C., day/night; 14 hours light; 65% humidity) and watered twice daily. After 13 days for pre and post-emergence, the test is evaluated for the percentage damage caused to the plant. The biological activities are shown in the following table on a five point scale (5=80-100%; 4=60-79%; 3=40-59%; 2=20-39%; 1=0-19%).
Using procedures outlines above, wheat plants (Triticum aestivum (TRZAW) are treated post-emergence with compound 1.2 of the present invention or compound A-18 from WO 2013/079708. The results outlined in Table B2 below show % phytotoxicity observed and that compound 1.2 of the present invention is less damaging to wheat compared to compound A-18 disclosed in WO2013/079708.

[2] = tested on: Echinochloa crus-galli (ECHCG); assay: Glasshouse herbicide test, pre- and post-emergence, Echinochloa crus-galli; settings: 250 g/h, evaluated after 13 days; for ECHCG POST, percentage damage caused to the plant (five point scale): post-emergence; for ECHCG PRE, percentage damage caused to the plant (five point scale): pre-emergence
Method: as §1

Setaria faberi (SETFA) = assay: Glasshouse herbicide test, pre- and post-emergence, Setaria faberi; settings: 250 g/h, evaluated after 13 days; for SETFA POST, percentage damage caused to the plant (five point scale): post-emergence; for SETFA PRE, percentage damage caused to the plant (five point scale): pre-emergence
Method: as §1

Avena fatua (AVEFA) = assay: Glasshouse herbicide test, pre- and post-emergence, Avena fatua; settings: 250 g/h, evaluated after 13 days; for AVEFA POST, percentage damage caused to the plant (five point scale): post-emergence; for AVEFA PRE, percentage damage caused to the plant (five point scale): pre-emergence
Method: as §1

Lolium perenne (LOLPE) = assay: Glasshouse herbicide test, pre- and post-emergence, Lolium perenne; settings: 250 g/h, evaluated after 13 days; for LOLPE POST, percentage damage caused to the plant (five point scale): post-emergence; for LOLPE PRE, percentage damage caused to the plant (five point scale): pre-emergence
Method: as §1

[3] = tested on: Alopecurus myosuroides (ALOMY); assay: Glasshouse herbicide test, pre- and post-emergence, Alopecurus myosuroides; settings: 250 g/h, evaluated after 13 days; for ALOMY POST, percentage damage caused to the plant (five point scale): post-emergence; for ALOMY PRE, percentage damage caused to the plant (five point scale): pre-emergence
Method: as §1

[4] = tested on: soybean plants (Glycine max (GLYMX)); assay: Crop phytotoxicity, soybean plants treated post-emergence
Method: [The procedure below names another organism; the source says it served here with some conditions changed.] as §1

Row | SMILES | TRZAW % Phyto ([1]; rate 4 g/ha) [%] | TRZAW % Phyto ([1]; rate 16 g/ha) [%] | TRZAW % Phyto ([1]; rate 63 g/ha) [%] | ECHCG POST, percentage damage caused to the plant (five point scale) [2] | ECHCG PRE, percentage damage caused to the plant (five point scale) [2] | SETFA POST, percentage damage caused to the plant (five point scale) (Setaria faberi (SETFA)) | SETFA PRE, percentage damage caused to the plant (five point scale) (Setaria faberi (SETFA)) | AVEFA POST, percentage damage caused to the plant (five point scale) (Avena fatua (AVEFA)) | AVEFA PRE, percentage damage caused to the plant (five point scale) (Avena fatua (AVEFA)) | LOLPE POST, percentage damage caused to the plant (five point scale) (Lolium perenne (LOLPE)) | LOLPE PRE, percentage damage caused to the plant (five point scale) (Lolium perenne (LOLPE)) | ALOMY POST, percentage damage caused to the plant (five point scale) [3] | ALOMY PRE, percentage damage caused to the plant (five point scale) [3] | GLYMX % Phyto ([4]; rate 15 g/ha) [%] | GLYMX % Phyto ([4]; rate 30 g/ha) [%] | GLYMX % Phyto ([4]; rate 60 g/ha) [%]
1 | CC#Cc1ccc(C2C(=O)[C@@H]3[C@H](C2=O)[C@H]2CC[C@@H]3O2)c(OC)c1 (stereo partly drawn) [Compound 1.2, 4-[2-methoxy-4-(prop-1-yn-1-yl)phenyl]-10-oxatricyclo[5.2.1.0^2,6]decane-3,5-dione] | 20 | 70 | 60 | 5 (5=80-100%) | 5 (5=80-100%) | 5 (5=80-100%) | 5 (5=80-100%) | 5 (5=80-100%) | 5 (5=80-100%) | 5 (5=80-100%) | 5 (5=80-100%) |  |  |  |  | 
2 | CC#Cc1ccc(C2C(=O)[C@H]3[C@@H]4CC[C@@](C)(O4)[C@H]3C2=O)c(OC)c1 (stereo partly drawn) [Compound 1.22] |  |  |  | 5 (5=80-100%) | 5 (5=80-100%) | 5 (5=80-100%) | 5 (5=80-100%) | 5 (5=80-100%) | 5 (5=80-100%) | 5 (5=80-100%) | 5 (5=80-100%) | 5 (5=80-100%) | 5 (5=80-100%) |  |  | 
3 | CC#Cc1ccc(C2C(=O)[C@@H]3[C@@H]4O[C@@H](C[C@H]4CC)[C@@H]3C2=O)c(OC)c1 (stereo partly drawn) [Compound 1.23] |  |  |  | 5 (5=80-100%) | 5 (5=80-100%) | 5 (5=80-100%) | 5 (5=80-100%) | 5 (5=80-100%) | 5 (5=80-100%) | 5 (5=80-100%) | 5 (5=80-100%) | 5 (5=80-100%) | 5 (5=80-100%) |  |  | 
4 | CC#Cc1ccc(C2C(=O)[C@@H]3[C@@H]4O[C@@H](C[C@H]4CC)[C@@H]3C2=O)c(OC)c1 (stereo partly drawn) [Compound 1.24] |  |  |  |  | 5 (5=80-100%) |  | 5 (5=80-100%) | 5 (5=80-100%) |  |  | 5 (5=80-100%) |  | 5 (5=80-100%) |  |  | 
5 | CC#Cc1cc(C)c(C2C(=O)[C@@H]3[C@H](C2=O)[C@H]2CC[C@@H]3O2)c(C)c1 (stereo partly drawn) [Compound A-18, reference compound] | 60 | 100 | 100 |  |  |  |  |  |  |  |  |  |  | 40 | 60 | 80
